Laboratory results: patent US20250296938A1, “Compounds that Interact with the Ras Superfamily for the Treatment of Cancers, Inflammatory Diseases, Rasopathies, and Fibrotic Disease” (SHY Therapeutics, LLC, priority 2018, published 2025)
Read-outs that look alike come from different tables or passages of the source.

How the values were obtained:
Assay in all cases: Ras GTP binding domain inhibition assay (Cy3-GTP/Cy5-GTP competition)
KRas wild type = tested on: KRas wild type; design: species or system human; settings: 20 μM; for KRas wild type: % inh.: without SOS; for KRas wild type % inh.: without SOS (Table 7A)
Experimental: (§1) The following method was developed as specific assay for the following proteins: KRas wild type, KRas Q61H mutant, KRas G12C mutant, KRas G12D mutant, HRas wild type, Rac-1, and Rho-A.
(§2) • 25 mM Tris-HCl, pH 7.4 • 27 mM KCl • 137 mM NaCl • 1 mM MgCl2 • 1 mM DTT
(§3) • 50 mM Tris-HCl, pH 7.0 • 1 mM MgCl2 • 1 mM DTT
(§4) The small GTPases proteins: KRas wild type. KRas Q61H mutant, KRas G12C mutant, KRas G12D mutants, HRas wild type, Rac-1, and Rho-A were expressed as His-tagged proteins. In addition, the Guanosine nucleotide Exchange Factor (GEF) Sos protein (residues 556-1049) was expressed as a His-tagged protein. In cells, the guanine nucleotide exchange factor Sos protein promotes activation of Ras proteins by stimulating an exchange of GDP for GTP. The inclusion of Sos to the Ras GTP binding domain inhibition assay may be considered as an alternative representation of physiological cellular conditions for evaluating the inhibitory activity of some of the tested small molecules.
(§5) For the assay, all purified small GTPases proteins were diluted in Buffer-I or Buffer-II to a final concentration of 10-30 μg/mL. 200 μL of each diluted protein was added to a nickel-coated 96-well plate and incubated overnight at 4° C. Then the protein solution was discarded and 200 μL of Buffer-I or Buffer-II was added to each well in the presence of 1% DMSO. Compounds to be tested were added to the protein-coated wells at final concentration of 20 μM, and incubated for 3 hours at room temperature with and without […] of Sos added to the final hour of the incubation. When performing IC50 measurements a serial dilution of all tested concentrations was added. Then Cy3-GTP or Cy5-GTP was added to each well to a final concentration of 100 nM. The labeled GTP was incubated for 45 minutes at room temperature. Following GTP incubation, wells were washed 3× in Buffer-I or Buffer-II and 200 μL of Buffer-I or Buffer-II was added to each well. Following washes, the amount of bound labeled-GTP was measured using a SpectraMax M3 (Molecular Devices).

KRas G12C mutant = tested on: KRas G12C mutant; design: species or system human; settings: 20 μM
Experimental: as §1, §2, §3, §4, §5

KRas Q61H mutant = tested on: KRas Q61H mutant; design: species or system human; settings: 20 μM
Experimental: as §1, §2, §3, §4, §5

KRas G12D mutant = molecular target: T1, KRas G12D mutant (Homo sapiens, UniProt P01116, G12D); settings: 20 μM
T1 construct: fused on or other part: His tag, used for capture on nickel-coated plates
Experimental: as §1, §2, §3, §4, §5

[1] = with SOS, read-out: KRas G-12D mutant + SOS: % inh.
[2] = without SOS, read-out: KRas G12D mutant: % inh.
[3] = with SOS (Table 7A), read-out: KRas G12D mutant + SOS: % inh.
[4] = without SOS (Table 7A), read-out: KRas G12D mutant: % inh.

KRas wild type + SOS: % inh. (KRas wild type; with SOS)	KRas wild type: % inh. (KRas wild type)	KRas G12C mutant + SOS: % inh. (KRas G12C mutant; with SOS)	KRas G12C mutant: % inh. (KRas G12C mutant; without SOS)	KRas Q61H mutant + SOS: % inh. (KRas Q61H mutant; with SOS)	KRas Q61H mutant: % inh. (KRas Q61H mutant; without SOS)	inhibition at 20 µM (KRas G12D mutant; [1]) [%]	inhibition at 20 µM (KRas G12D mutant; [2]) [%]	KRas wild type + SOS: % inh. (KRas wild type; with SOS (Table 7A))	KRas wild type % inh. (KRas wild type)	KRas G12C mutant + SOS: % inh. (KRas G12C mutant; with SOS (Table 7A))	KRas G12C mutant: % inh. (KRas G12C mutant; without SOS (Table 7A))	KRas Q61H mutant + SOS: % inh. (KRas Q61H mutant; with SOS (Table 7A))	KRas Q61H mutant: % inh. (KRas Q61H mutant; without SOS (Table 7A))	inhibition at 20 µM (KRas G12D mutant; [3]) [%]	inhibition at 20 µM (KRas G12D mutant; [4]) [%]	SMILES
A (1-25% inhibition)	0 (0% inhibition)	A (1-25% inhibition)	A (1-25% inhibition)	A (1-25% inhibition)	0 (0% inhibition)	1 to 25	1 to 25	–	–	–	–	–	–	–	–	COCCn1cc(Nc2nc(-c3ccccn3)nc(OC)c2OC)cn1 [drawing 793]
–	–	–	–	–	–	–	–	D (76-100% inhibition)	B (26-50% inhibition)	D (76-100% inhibition)	B (26-50% inhibition)	D (76-100% inhibition)	B (26-50% inhibition)	51 to 75	26 to 50	COC1CCC(Nc2nc(-c3nccn3C)nc3sc(-c4cccc5[nH]ncc45)c(C)c23)C1 (stereo not shown) [drawing 895]
–	–	–	–	–	–	–	–	D (76-100% inhibition)	C (51-75% inhibition)	D (76-100% inhibition)	D (76-100% inhibition)	D (76-100% inhibition)	D (76-100% inhibition)	51 to 75	51 to 75	CO[C@H]1C[C@@H](Nc2nc(-c3nccn3C)nc3sc(C(=O)NC(C)C)c(-c4ccccc4)c23)C1 [drawing 920]
D (76-100% inhibition)	B (26-50% inhibition)	D (76-100% inhibition)	B (26-50% inhibition)	D (76-100% inhibition)	C (51-75% inhibition)	51 to 75	51 to 75	–	–	–	–	–	–	–	–	COCC(C)Nc1nc(-c2nccn2C)nc2sc(-c3cccc(OC)c3)c(-c3cscn3)c12 (stereo not shown) [drawing 855]
A (1-25% inhibition)	B (26-50% inhibition)	B (26-50% inhibition)	C (51-75% inhibition)	B (26-50% inhibition)	B (26-50% inhibition)	26 to 50	26 to 50	–	–	–	–	–	–	–	–	CC(C)CN(C)C(=O)c1nc(-c2ccccn2)nc(O)c1O [drawing 798]
C (51-75% inhibition)	C (51-75% inhibition)	B (26-50% inhibition)	A (1-25% inhibition)	B (26-50% inhibition)	B (26-50% inhibition)	26 to 50	1 to 25	–	–	–	–	–	–	–	–	COCCCNc1nc(-c2nccn2C)nc2sc(-c3ccn(C)n3)c(-c3ccccc3)c12 [drawing 866]
0 (0% inhibition)	A (1-25% inhibition)	A (1-25% inhibition)	0 (0% inhibition)	A (1-25% inhibition)	A (1-25% inhibition)	1 to 25	0	–	–	–	–	–	–	–	–	COCCCNc1nc(-c2nccn2C)nc2sc(-c3ccn(C)n3)c(-c3ccc(OC)cc3)c12 [drawing 870]
B (26-50% inhibition)	C (51-75% inhibition)	B (26-50% inhibition)	C (51-75% inhibition)	C (51-75% inhibition)	C (51-75% inhibition)	26 to 50	51 to 75	–	–	–	–	–	–	–	–	Cn1ccnc1-c1nc(O)c(O)c(C(=O)NC2CCC2)n1 [drawing 825]
B (26-50% inhibition)	C (51-75% inhibition)	C (51-75% inhibition)	B (26-50% inhibition)	C (51-75% inhibition)	B (26-50% inhibition)	26 to 50	51 to 75	–	–	–	–	–	–	–	–	Cc1cc(Cn2ccnc2-c2nc(O)c3scc(-c4ccccn4)c3n2)on1 [drawing 846]
C (51-75% inhibition)	A (1-25% inhibition)	C (51-75% inhibition)	A (1-25% inhibition)	C (51-75% inhibition)	B (26-50% inhibition)	26 to 50	26 to 50	–	–	–	–	–	–	–	–	CO[C@@H]1CCC(Nc2nc(-c3nccn3C)nc3sc(-c4ccn(C)n4)c(-c4ccccc4)c23)C1 (stereo partly shown) [drawing 859]
D (76-100% inhibition)	A (1-25% inhibition)	D (76-100% inhibition)	0 (0% inhibition)	D (76-100% inhibition)	A (1-25% inhibition)	51 to 75	1 to 25	–	–	–	–	–	–	–	–	COc1cccc(-c2sc3nc(-c4nccn4C)nc(N4CCC(OC)C4)c3c2-c2cscn2)c1 (stereo not shown) [drawing 867]
D (76-100% inhibition)	C (51-75% inhibition)	D (76-100% inhibition)	B (26-50% inhibition)	C (51-75% inhibition)	B (26-50% inhibition)	51 to 75	26 to 50	–	–	–	–	–	–	–	–	COC1CCN(c2nc(-c3nccn3C)nc3sc(Br)c(-c4ccccc4)c23)C1 (stereo not shown) [drawing 822]
C (51-75% inhibition)	D (76-100% inhibition)	C (51-75% inhibition)	D (76-100% inhibition)	C (51-75% inhibition)	D (76-100% inhibition)	51 to 75	76 to 100	–	–	–	–	–	–	–	–	Cn1ccnc1-c1nc(O)c2scc(-c3ccccn3)c2n1 [drawing 853]
C (51-75% inhibition)	C (51-75% inhibition)	C (51-75% inhibition)	C (51-75% inhibition)	C (51-75% inhibition)	C (51-75% inhibition)	51 to 75	76 to 100	–	–	–	–	–	–	–	–	Oc1nc(-c2ncc3ccccn23)nc2c(-c3ccccn3)csc12 [drawing 834]
–	–	–	–	–	–	–	–	C (51-75% inhibition)	B (26-50% inhibition)	C (51-75% inhibition)	A (1-25% inhibition)	C (51-75% inhibition)	B (26-50% inhibition)	51 to 75	1 to 25	COC1CCN(c2nc(-c3nccn3C)nc3sc(-c4cccc(O)c4F)c(-c4ccccc4)c23)C1 (stereo not shown) [drawing 890]
–	–	–	–	–	–	–	–	C (51-75% inhibition)	D (76-100% inhibition)	C (51-75% inhibition)	C (51-75% inhibition)	C (51-75% inhibition)	D (76-100% inhibition)	76 to 100	51 to 75	Cc1c(-c2ccn(C)n2)sc2nc(-c3nccn3C)nc(NCCCC(=O)N(C)C)c12 [drawing 917]
–	–	–	–	–	–	–	–	D (76-100% inhibition)	D (76-100% inhibition)	D (76-100% inhibition)	D (76-100% inhibition)	D (76-100% inhibition)	D (76-100% inhibition)	76 to 100	51 to 75	CO[C@H]1C[C@@H](Nc2nc(-c3nccn3C)nc3sc(-c4cnn(C)c4)c(-c4ccccc4)c23)C1 [drawing 892]
